Measurements published in ChEMBL document CHEMBL1201862, “PubChem BioAssay data set” (2004).
Calls of active or inactive are those of the source.

Legend:
[1] = target: NACHT, LRR and PYD domains-containing protein 3 (Homo sapiens, UniProt Q96P20); test: NALP3 inhibitors in yeast, dose response, luminescent (AID 488799); type: functional
[2] = Trypanosoma cruzi growth suppression in host cells – NIH3T3 host cells, beta-gal luminescence, confirmation (AID 2044); type: functional, cell-based;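 note: intracellular parasites grown in NIH/3T3 mouse fibroblasts as host cells; luminescent beta-galactosidase reporter signal from transgenic T. cruzi replicating inside host cells; inhibitors lower the luminescence signal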
[3] = NIH3T3 cell viability loss – ATP luminescence, mouse fibroblasts, counter-screen, dose response (AID 2010); type: functional, cell-based;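 note: cells exposed to compound for about 90 hours before reading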
[4] = A Cell Based Secondary Assay To Explore Cytotoxicity of Compounds that Sensitize Mycobacterium Tuberculosis to Beta-Lactam Antibiotics.; type: functional
[5] = target: T1, Kappa-type opioid receptor (Homo sapiens, UniProt P41145); type: functional
T1 sequence (P41145 whole entry): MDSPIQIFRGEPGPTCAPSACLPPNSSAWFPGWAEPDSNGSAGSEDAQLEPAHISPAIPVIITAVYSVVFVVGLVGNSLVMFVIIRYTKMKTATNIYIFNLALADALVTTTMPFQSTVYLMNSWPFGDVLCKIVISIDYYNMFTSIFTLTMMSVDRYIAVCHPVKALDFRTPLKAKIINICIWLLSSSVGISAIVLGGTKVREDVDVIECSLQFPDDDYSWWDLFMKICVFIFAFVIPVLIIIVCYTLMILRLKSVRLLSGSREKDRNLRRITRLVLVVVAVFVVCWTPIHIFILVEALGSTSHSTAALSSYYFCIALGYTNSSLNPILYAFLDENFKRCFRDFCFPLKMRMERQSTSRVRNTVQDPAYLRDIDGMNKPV

[6] = target: T1, Kappa-type opioid receptor; test: kappa opioid receptor activation potency – imaging, image-based, SAR follow-up (AID 2359); type: functional
[7] = target: T1, Kappa-type opioid receptor; test: kappa opioid receptor blockers, image-based, SAR follow-up (AID 2348); type: functional
[8] = target: T2, Delta-type opioid receptor (Homo sapiens, UniProt P41143); test: HTS Image-Based Screen for Agonists of the DOR Receptor. [Related pubchem assays (depositor defined):AID1777, AID1786, AID2133]; type: functional
T2 sequence (P41143 whole entry): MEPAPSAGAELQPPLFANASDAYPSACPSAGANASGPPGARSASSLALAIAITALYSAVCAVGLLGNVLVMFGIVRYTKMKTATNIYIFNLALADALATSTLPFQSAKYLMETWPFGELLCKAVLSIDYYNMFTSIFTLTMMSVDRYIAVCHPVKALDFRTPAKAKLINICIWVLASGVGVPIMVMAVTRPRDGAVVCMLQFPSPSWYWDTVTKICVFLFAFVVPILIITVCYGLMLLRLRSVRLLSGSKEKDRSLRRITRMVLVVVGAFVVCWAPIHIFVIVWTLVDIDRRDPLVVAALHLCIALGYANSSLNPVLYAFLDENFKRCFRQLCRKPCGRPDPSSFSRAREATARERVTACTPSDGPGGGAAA

[9] = target: T2, Delta-type opioid receptor; test: delta opioid receptor blockers – image-based, SAR follow-up (AID 2357); type: functional
[10] = target: T1, Kappa-type opioid receptor; type: functional; remark: listed apart in the source
[11] = target: T2, Delta-type opioid receptor; test: DOR agonists, SAR follow-up, image-based (AID 2370); type: functional
[12] = target: T2, Delta-type opioid receptor; test: HTS Image-Based Screen for Antagonists of the DOR Receptor. [Related pubchem assays (depositor defined):AID1777, AID1785, AID1786, AID2133]; type: functional
[13] = target: T1, Kappa-type opioid receptor; test: SAR analysis of small molecule agonists of the kappa opioid receptor via a luminescent beta-arrestin assay. [Related pubchem assays (depositor defined):AID1777, AID1786, AID1966, AID2133, AID2136, AID2348, AID2352, AID2357, AID2359, AID2370, AID2420, AID2478, AID2491, AID2492, AID2493, AID2497, AID2498, AID2500, AID449737, AID488822, AID488842]; type: functional
Mu-type opioid receptor [14] = target: T3, Mu-type opioid receptor (Homo sapiens, UniProt P35372); test: HTS Image-Based Screen for Agonists of the MOR Receptor. [Related pubchem assays (depositor defined):AID1777, AID1785, AID1786, AID2133]; type: functional
T3 sequence (P35372 whole entry): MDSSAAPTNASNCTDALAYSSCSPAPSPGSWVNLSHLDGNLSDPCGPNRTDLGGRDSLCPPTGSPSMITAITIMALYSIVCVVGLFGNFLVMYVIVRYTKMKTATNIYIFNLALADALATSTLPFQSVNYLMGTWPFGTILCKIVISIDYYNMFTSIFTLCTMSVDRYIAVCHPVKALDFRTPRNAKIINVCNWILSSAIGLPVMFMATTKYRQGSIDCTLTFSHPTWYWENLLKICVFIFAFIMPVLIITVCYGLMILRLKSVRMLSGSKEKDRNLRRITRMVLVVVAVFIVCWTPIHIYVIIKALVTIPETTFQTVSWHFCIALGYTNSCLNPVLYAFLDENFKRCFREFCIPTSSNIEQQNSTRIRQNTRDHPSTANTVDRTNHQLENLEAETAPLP

Mu-type opioid receptor [15] = target: T3, Mu-type opioid receptor; test: mu opioid receptor blockers – image-based, SAR follow-up (AID 2420); type: functional;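 note: compounds added before stimulation of receptor with agonist DAMGO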
Mu-type opioid receptor [16] = target: T3, Mu-type opioid receptor; test: mu opioid receptor activators, image-based, SAR follow-up (AID 2352); type: functional
Cytochrome P450 2C9 = Cytochrome P450 2C9 (Homo sapiens, UniProt P11712); conditions: Potency
Chain of Cytochrome P450 2C9 (P11712 whole entry): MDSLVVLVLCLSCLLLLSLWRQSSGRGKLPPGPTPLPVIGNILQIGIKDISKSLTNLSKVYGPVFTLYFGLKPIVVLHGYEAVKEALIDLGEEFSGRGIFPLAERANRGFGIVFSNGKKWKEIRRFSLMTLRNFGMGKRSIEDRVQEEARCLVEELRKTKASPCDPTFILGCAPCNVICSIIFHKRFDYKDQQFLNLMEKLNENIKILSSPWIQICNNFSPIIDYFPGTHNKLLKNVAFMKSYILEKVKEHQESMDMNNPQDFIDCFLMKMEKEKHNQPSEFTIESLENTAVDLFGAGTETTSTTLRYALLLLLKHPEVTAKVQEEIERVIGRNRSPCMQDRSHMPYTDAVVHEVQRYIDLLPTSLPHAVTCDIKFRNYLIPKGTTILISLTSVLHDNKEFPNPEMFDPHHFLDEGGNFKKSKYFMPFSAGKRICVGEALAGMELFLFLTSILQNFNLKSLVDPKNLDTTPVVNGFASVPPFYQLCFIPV

[17] = target: Neurotensin receptor type 1 (Homo sapiens, UniProt P30989); type: functional;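 note: Image-based confirmatory dose-response assay measuring agonist activity at NTR1; NTR1-expressing U2OS osteosarcoma cells imaged for beta-arrestin GFP spot formation; agonist potency where compounds increase beta-arrestin recruitment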
Chain of Neurotensin receptor type 1 (P30989 whole entry): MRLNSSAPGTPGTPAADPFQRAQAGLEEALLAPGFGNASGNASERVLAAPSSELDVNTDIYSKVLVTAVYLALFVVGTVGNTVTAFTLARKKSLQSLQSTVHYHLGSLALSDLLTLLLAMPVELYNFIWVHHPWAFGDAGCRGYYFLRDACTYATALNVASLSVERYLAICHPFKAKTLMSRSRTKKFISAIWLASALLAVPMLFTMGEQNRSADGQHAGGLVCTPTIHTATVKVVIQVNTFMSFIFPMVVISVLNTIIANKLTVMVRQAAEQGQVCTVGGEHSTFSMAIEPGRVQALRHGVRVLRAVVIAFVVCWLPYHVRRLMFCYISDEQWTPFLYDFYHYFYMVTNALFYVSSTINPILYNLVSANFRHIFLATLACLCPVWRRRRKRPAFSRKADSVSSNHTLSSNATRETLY

[18] = target: T4, Short transient receptor potential channel 4 (Mus musculus, UniProt Q9QUQ5); test: calcium entry via TRPC4 opening agents – cell-based, HEK293 TRPC4/mu-opioid, Fluo-4 calcium, dose response (AID 434937); type: functional
T4 sequence (Q9QUQ5 whole entry): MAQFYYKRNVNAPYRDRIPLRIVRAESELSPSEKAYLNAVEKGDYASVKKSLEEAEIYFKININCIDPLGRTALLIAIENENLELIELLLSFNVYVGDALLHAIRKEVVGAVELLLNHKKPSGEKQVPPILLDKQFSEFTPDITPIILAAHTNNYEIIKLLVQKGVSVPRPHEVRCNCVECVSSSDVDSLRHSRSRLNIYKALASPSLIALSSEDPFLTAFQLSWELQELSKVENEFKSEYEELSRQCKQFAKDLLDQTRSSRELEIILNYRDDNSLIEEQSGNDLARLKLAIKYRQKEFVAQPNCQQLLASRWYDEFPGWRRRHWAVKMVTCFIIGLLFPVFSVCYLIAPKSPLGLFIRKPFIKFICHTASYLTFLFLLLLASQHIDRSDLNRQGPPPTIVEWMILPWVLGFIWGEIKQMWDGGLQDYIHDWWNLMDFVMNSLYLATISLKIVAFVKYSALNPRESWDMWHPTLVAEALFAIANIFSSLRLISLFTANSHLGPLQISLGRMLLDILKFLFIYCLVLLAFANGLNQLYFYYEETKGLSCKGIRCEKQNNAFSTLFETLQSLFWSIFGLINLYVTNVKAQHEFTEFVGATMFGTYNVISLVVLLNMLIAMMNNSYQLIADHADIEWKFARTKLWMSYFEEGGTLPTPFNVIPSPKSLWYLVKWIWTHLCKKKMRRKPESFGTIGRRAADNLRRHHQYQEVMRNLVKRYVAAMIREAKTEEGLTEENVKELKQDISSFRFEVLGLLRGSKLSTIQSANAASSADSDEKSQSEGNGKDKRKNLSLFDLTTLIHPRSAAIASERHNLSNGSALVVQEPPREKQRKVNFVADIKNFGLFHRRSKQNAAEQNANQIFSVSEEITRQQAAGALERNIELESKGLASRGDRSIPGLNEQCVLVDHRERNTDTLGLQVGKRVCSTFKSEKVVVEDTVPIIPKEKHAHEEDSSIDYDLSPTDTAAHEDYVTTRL

[19] = target: C-C chemokine receptor type 6 (Homo sapiens, UniProt P51684); test: antagonism of CCR6 beta-arrestin recruitment – cell-based, luminescent beta-arrestin readout, dose response (AID 504728); type: functional
Chain of C-C chemokine receptor type 6 (P51684 whole entry): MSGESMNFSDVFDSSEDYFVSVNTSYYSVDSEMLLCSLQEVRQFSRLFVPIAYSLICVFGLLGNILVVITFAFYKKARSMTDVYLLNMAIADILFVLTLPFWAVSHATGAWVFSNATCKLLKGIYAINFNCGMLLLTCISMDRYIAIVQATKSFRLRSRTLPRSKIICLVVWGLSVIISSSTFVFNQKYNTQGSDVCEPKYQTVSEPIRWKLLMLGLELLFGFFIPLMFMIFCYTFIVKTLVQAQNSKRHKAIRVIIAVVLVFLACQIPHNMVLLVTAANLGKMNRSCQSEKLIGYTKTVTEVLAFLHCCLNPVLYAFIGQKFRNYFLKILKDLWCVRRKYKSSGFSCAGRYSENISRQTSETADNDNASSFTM

Beta-galactosidase = Beta-galactosidase (Escherichia coli, UniProt Q8VNN2); test: detection-enzyme interference by beta-gal modulators – biochemical, E. coli enzyme, set 3, artefact control for CCR6 antagonist project, dose response (AID 504712); type: functional
Chain of Beta-galactosidase (Q8VNN2 whole entry): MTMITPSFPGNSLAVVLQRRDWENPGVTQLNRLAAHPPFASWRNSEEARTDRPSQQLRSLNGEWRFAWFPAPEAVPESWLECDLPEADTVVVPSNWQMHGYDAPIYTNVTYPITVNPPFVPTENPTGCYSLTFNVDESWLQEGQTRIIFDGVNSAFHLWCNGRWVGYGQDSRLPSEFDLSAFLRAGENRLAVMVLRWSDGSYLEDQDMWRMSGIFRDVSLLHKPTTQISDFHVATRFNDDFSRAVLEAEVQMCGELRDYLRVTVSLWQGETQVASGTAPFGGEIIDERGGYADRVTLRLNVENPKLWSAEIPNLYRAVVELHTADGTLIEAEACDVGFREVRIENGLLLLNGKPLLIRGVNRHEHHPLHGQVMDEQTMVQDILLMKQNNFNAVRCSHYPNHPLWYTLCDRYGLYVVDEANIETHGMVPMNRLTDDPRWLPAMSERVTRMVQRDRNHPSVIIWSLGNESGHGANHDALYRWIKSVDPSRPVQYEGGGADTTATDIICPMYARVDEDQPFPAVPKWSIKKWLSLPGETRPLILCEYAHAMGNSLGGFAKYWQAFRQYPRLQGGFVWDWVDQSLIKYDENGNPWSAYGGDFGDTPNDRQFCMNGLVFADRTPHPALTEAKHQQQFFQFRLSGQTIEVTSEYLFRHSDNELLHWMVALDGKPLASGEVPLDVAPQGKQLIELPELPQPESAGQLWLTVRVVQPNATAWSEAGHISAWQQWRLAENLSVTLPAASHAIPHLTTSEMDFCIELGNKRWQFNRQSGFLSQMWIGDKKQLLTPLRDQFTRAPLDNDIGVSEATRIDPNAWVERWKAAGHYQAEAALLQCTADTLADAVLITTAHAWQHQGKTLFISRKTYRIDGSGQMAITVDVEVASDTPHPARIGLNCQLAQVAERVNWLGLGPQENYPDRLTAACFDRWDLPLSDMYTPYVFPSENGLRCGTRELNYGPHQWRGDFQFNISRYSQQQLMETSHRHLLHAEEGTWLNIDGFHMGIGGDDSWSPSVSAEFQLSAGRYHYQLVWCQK

Chain of NACHT, LRR and PYD domains-containing protein 3 (Q96P20 whole entry, the tested form may be a part): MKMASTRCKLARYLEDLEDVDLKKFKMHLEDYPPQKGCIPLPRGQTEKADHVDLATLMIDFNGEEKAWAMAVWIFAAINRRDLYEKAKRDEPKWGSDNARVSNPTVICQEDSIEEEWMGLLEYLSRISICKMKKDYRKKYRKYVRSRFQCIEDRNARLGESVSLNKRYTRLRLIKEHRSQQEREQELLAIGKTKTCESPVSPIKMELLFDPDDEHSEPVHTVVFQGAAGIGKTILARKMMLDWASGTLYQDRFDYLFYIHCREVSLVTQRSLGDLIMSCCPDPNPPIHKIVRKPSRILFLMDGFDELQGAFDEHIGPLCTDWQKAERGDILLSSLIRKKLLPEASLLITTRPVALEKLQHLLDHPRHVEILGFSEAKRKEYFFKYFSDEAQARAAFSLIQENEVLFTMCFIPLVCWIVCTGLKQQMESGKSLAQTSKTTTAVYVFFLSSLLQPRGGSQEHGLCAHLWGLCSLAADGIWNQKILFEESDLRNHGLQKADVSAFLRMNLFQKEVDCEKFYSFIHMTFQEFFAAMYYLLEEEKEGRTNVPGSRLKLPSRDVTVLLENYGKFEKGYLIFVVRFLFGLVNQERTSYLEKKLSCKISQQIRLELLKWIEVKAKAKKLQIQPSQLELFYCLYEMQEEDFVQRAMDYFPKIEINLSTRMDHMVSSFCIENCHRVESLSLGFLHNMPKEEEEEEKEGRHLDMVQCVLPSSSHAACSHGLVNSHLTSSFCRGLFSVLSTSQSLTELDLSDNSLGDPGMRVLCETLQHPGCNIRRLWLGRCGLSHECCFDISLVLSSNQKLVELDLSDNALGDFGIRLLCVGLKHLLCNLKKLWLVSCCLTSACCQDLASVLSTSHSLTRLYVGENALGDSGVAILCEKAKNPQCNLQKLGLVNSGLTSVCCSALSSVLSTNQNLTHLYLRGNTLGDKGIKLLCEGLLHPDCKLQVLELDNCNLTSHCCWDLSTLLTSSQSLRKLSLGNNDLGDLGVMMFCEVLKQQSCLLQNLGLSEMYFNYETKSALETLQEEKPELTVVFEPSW

In the case of `O=C(CCS(=O)(=O)c1ccccc1)N(CCCN1CCOCC1)c1nc2c(F)cccc2s1`, the IC50 [1] is reported as 2.07 µM (active), the EC50 [2] is reported as 3.11 µM (active) and the EC50 [3] is reported as 4.45 µM (active). The CC50 [4] was > 40 µM (active).

In the case of `CCC(C)(C(=O)NC1CCCCC1)N(Cc1ccco1)C(=O)c1cnccn1` (stereo not drawn), the EC50 [5] is reported as 1.75 µM, the EC50 [6] is reported as 1.36 µM (active) and the IC50 [7] is reported as > 32 µM (inactive). For the same molecule, the EC50 [8] was > 32 µM (inactive), the IC50 [9] was > 32 µM (inactive) and the EC50 [10] was 2.47 µM. For the same molecule, the EC50 [11] was > 32 µM (inactive), the IC50 [12] was > 32 µM (inactive) and the EC50 [13] was 3.71 µM (active). For the same molecule, the EC50 (Mu-type opioid receptor [14]) was > 32 µM (inactive), the IC50 (Mu-type opioid receptor [15]) was > 32 µM (inactive) and the EC50 (Mu-type opioid receptor [16]) was > 32 µM (inactive).

In the case of `COC(=O)C12CC3(CCC4C5C(C(OCc6ccccc6)C41)C52)OCCO3` (stereo not drawn), the AC50 (Cytochrome P450 2C9) is reported as 5.01 µM (inconclusive).

With `O=C(Nc1ccc([N+](=O)[O-])cc1)Nc1ccc(N2CCOCC2)c2nonc12` the EC50 [2] was 3.77 µM (active), the EC50 [3] was > 30 µM (not active) and the EC50 [17] was > 40 µM (inactive).

With `CN(C)C(CNc1ccc(C(F)(F)F)cn1)c1ccccc1` (stereo not drawn) the EC50 [18] was 2.11 µM (active), the IC50 [19] was > 66.6 µM (inactive) and the IC50 (Beta-galactosidase) was > 66.6 µM (inactive).
